Our source for the IC50 values is US20230203060A1 (GENFLEET THERAPEUTICS (SHANGHAI) INC., priority 2020, published 2023).

In assay [1] the target is T1, KRAS G12C (Homo sapiens, UniProt P01116, G12C).
T1 construct: purchased Reactionbiology
Briefly: KRAS G12C NEA-HTRF experiment (SOS1-catalyzed displacement of GDP by GTP). The class given is biochemical. In outline: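 His-tagged KRAS G12C preloaded with DY647-GDP was preincubated 15 min at 20 °C with compound, then exchanged with SOS1 (0.2 μM working solution) and GTP (200 μM working solution) for 2 h at 20 °C in the dark. HTRF 665/615 nm ratio with anti-His-Tb was normalised to T0 and no-compound controls; IC50 by four-parameter fit.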

For assay [2], the system named is phosphorylated ERK downstream of KRAS G12C in MIA PaCa2 cells. Briefly: Cell p-ERK detection experiment (HTRF) in MIA PaCa2. Format: cell-based, human. To be noted: Homo sapiens, MIA PaCa-2, 2 h, MIA PaCa2 cells, 2 hours with compound, Advance ERK phospho-T202/Y204 HTRF kit; read-out: p-ERK IC50. In outline: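 Phospho-ERK (T202/Y204) measured by HTRF after 30 min lysis and 4 h antibody incubation in MIA PaCa2 (KRAS G12C) cells, seeded at 2.5E4 per well and treated 2 h with compounds in 3.16-fold steps, final DMSO 0.1%. IC50 from a four-parameter fit of percent inhibition relative to DMSO and blank wells.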

T1 sequence (P01116 1-188 isoform P01116-2 G12C): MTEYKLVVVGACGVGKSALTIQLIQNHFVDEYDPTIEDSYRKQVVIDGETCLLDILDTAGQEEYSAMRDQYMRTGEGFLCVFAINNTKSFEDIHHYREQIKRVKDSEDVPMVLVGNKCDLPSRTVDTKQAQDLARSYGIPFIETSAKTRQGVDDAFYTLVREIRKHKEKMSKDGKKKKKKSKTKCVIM

Turning to `C=CC(=O)N1CCN2C(=O)c3c(N4CCN(C)C[C@@H]4C)nc(-c4c(F)cccc4Cl)c(Cl)c3OC[C@H]2C1` [Z547, (6aR)-8-acryloyl-4-chloro-3-(2-chloro-6-fluorophenyl)-1-((S)-2,4-dimethylpiperazin-1-yl)-6,6a,7,8,9,10-hexahydro-12H-pyrazino[2,1-c]pyrido[3,4-f][1,4]oxazepin-12-one], the IC50 in assay [1] was found to be 139 nM; in assay [2] it was 135 nM.
Regarding `C=CC(=O)N1CCN2C(=O)c3c(N4CCN(C)[C@@H](C)[C@@H]4C)nc(-c4ccccc4F)c(Cl)c3OC[C@H]2C1` [Z653, (R)-8-acryloyl-4-chloro-3-(2-fluorophenyl)-1-((2S,3S)-2,3,4-trimethylpiperazin-1-yl)-6,6a,7,8,9,10-hexahydro-12H-pyrazino[2,1-c]pyrido[3,4-f][1,4]oxazepin-12 (6aH)-one], the IC50 in assay [1] was 298 nM; in assay [2], 184 nM.
With `C=CC(=O)N1CCN2C(=O)c3c(N4C[C@H](N5CC(F)C5)CC4(C)C)nc(-c4ccccc4F)c(F)c3OC[C@H]2C1` [Z654-2, (R)-8-acryloyl-4-fluoro-1-((R)-4-(3-fluoroazetidin-1-yl)-2,2-dimethylpyrrolidin-1-yl)-3-(2-fluorophenyl)-6,6a,7,8,9,10-hexahydro-12H-pyrazino[2,1-c]pyrido[3,4-f][1,4]oxazepin-12-one], the IC50 was found to be 168 nM in assay [1] and 167 nM in assay [2].
`C=CC(=O)N1CCN2C(=O)c3c(N4CC(N(C)CCO)CC4(C)C)nc(-c4ccccc4F)c(Cl)c3OC[C@H]2C1` (stereo partly drawn) [Z658, (6aR)-8-acryloyl-4-chloro-3-(2-fluorophenyl)-1-(4-((2-hydroxyethyl)(methyl)amino)-2,2-dimethylpyrrolidin-1-yl)-6,6a,7,8,9,10-hexahydro-12H-pyrazino[2,1-c]pyrido[3,4-f][1,4]oxazepin-12-one]: the IC50 in assay [1] is 28.4 nM; in assay [2], 24 nM.
As for `C=CC(=O)N1CCN2C(=O)c3c(N4CC(NC)CC4(C)C)nc(-c4ccccc4F)c(Cl)c3OC[C@H]2C1` (stereo partly drawn) [Z661, (6aR)-8-acryloyl-4-chloro-1-(2,2-dimethyl-4-(methylamino)pyrrolidin-1-yl)-3-(2-fluorophenyl)-6,6a,7,8,9,10-hexahydro-12H-pyrazino[2,1-c]pyrido[3,4-f][1,4]oxazepin-12-one], the half-maximal inhibitory concentration (IC50) in assay [1] turned out to be 32.9 nM; in assay [2], 29 nM.
